Marks after values point to notes of the source that are not given here.
How the values were obtained:
[1] = cited from earlier work
[2] = cited from earlier work; remark: listed apart in the source
[3] = Table 1; K=[ML]/[M][L]; cited from earlier work
[4] = tested on: Aβ deposits of AD-affected brain; test: Extraction (solubilization) of Aβ from post-mortem AD brain tissue homogenates, western blot densitometry; type: biochemical, human; settings: for Effect of Chelators upon extraction of Aβ (% change from control): mean n = 6 AD brain samples, above PBS extraction alone
Method: Identical regions of frontal cortex (0.5 g) from post-mortem brains of individuals with AD, as well as non-AD conditions, were homogenized in TBS, […] ±metal chelators.
0.5 g of prefrontal cortex was dissected and homogenized in PBS ±chelator as indicated. The homogenate was then centrifuged (100,000 g) and the supernatant removed, and a sample taken for western blot assay using anti-Aβ specific antibodies after Tricine PAGE. Densitometry was performed against synthetic peptide standards.
Densitometry of Aβ western blots (FIGS. 19A-19C) was performed for a series of 6 AD brain samples homogenized in the presence of chelators as indicated.
Next the ability of clioquinol to extract Aβ deposits from human brain was examined. […] Fragments of prefrontal cortex from individual post-mortem samples with the histopathological diagnosis of AD were homogenized in PBS, pH 7.4, and then pelleted after centrifugation. The pellets were then washed with agitation twice for 30 minutes, 4° C., with PBS or PBS containing clioquinol (100% =0.8 μM clioquinol). The suspension was then pelleted (10,000 g for 30 minutes) and the supernatant removed (S1) for western blot analysis using Aβ-specific antibodies (illustrated). The pellet was treated a second time in this experiment with agitation and centrifugation, and the second supernatant (S2) analysed.
Soluble Aβ (ng/g tissue) was determined as described. Total Aβ was determined following formic acid extraction of otherwise untreated tissue.
(§1) Suitable quantities of gray matter from each subject were minced to serve as pools of homogenous tissue. […] To obtain the soluble fraction, the homogenates were centrifuged at 100,000× g for 30 min (Beckman J180, Beckman instruments, Fullerton, California) and the supernatant collected in 1 ml aliquots and stored on ice or immediately frozen at −70° C. In each experiment, all protein was precipitated from 1 ml of supernatant from each treatment group using 1:5 ice cold 10% trichloracetic acid and pelleted in a bench top microfuge (Heraeus, Osteroder, Germany) at 10,000× g. The remaining pellet was frozen at −70° C.
Precipitated protein was subjected to SDS polyacrylamide gel electrophoresis (SDS-PAGE) on Novex pre-cast 10-20% Tris-Tricine gels followed by Western transfer onto 0.2 μm nitrocellulose membrane (Biorad, Hercules, Calif.). […] Each gel included two or more lanes containing known quantities of synthetic Aβ which served as internal reference standards. Blot images were captured by a Relisys scanner with transparency adapter (Teco Information Systems, Taiwan, ROC) and densitometry conducted using the NIH Image 1.6 program (National Institutes for Health, USA. Modified for PC by Scion Corporation, Frederick, Md.), calibrated using a step diffusion chart. For quantitation of Aβ in brain extracts, the internal reference standards of synthetic Aβ were utilized to produce standard curves from which values were interpolated.

[5] = Table 1; K=[ML]/[M][L]; cited from earlier work; remark: listed apart in the source
[6] = Table 1; K=[ML]/[M][L]; cited from earlier work; remark: listed apart in the source
[7] = cited from earlier work; remark: listed apart in the source
[8] = tested on: Aβ deposits of age-matched control brain; test: Extraction of Aβ from age-matched non-AD control brain tissue; type: biochemical, human; settings: chelator 2 mM
Method: as §1
Precipitated protein was subjected to SDS polyacrylamide gel electrophoresis (SDS-PAGE) on Novex pre-cast 10-20% Tris-Tricine gels followed by Western transfer onto 0.2 μm nitrocellulose membrane (Biorad, Hercules, Calif.). Aβ was detected using the WO2, G210 or G211 monoclonal antibodies (Ida, N., et al., J. Biol. Chem., 271:22908 (1996)) in combination with HRP-conjugated rabbit anti-mouse IgG (Dako, Denmark), and visualized using chemiluminescence (ECL, Amersham Life Science, Little Chalfont, Buckinghamshire, UK). Each gel included two or more lanes containing known quantities of synthetic Aβ which served as internal reference standards. Blot images were captured by a Relisys scanner with transparency adapter (Teco Information Systems, Taiwan, ROC) and densitometry conducted using the NIH Image 1.6 program (National Institutes for Health, USA. Modified for PC by Scion Corporation, Frederick, Md.), calibrated using a step diffusion chart. For quantitation of Aβ in brain extracts, the internal reference standards of synthetic Aβ were utilized to produce standard curves from which values were interpolated.

[9] = cited from earlier work; remark: listed apart in the source
[10] = Residual metals in post-centrifugation pellets of brain homogenates (ICP-AES); type: biochemical, human; design: Residual Metal Levels, Mg: unit not given here; settings: for Residual Al in extracted pellet / Residual Ca in extracted pellet / Residual Cu in extracted pellet / Residual Fe in extracted pellet / Residual Mg in extracted pellet / Residual Zn in extracted pellet: Table 6
[11] = Table 3, TPEN 0.1 mM, AD (n=6) and healthy controls (n=4)
[12] = Table 7, 10 AD specimens, 0.1 mM TPEN

SMILES: c1ccc(CN(CCN(Cc2ccccn2)Cc2ccccn2)Cc2ccccn2)nc1 [TPEN, N,N,N′,N′-tetrakis [2-pyridyl-methyl] ethylenediamine]
- LogK, Fe ([1]; Table 1, K=[ML]/[M][L]): 14.4
- Stability constant logK10, Fe ([1]; Table 5, NIST database): 14.4
- LogK, Ca ([2]; Table 1, K=[ML]/[M][L]): 3.0
- Stability constant logK10, Ca ([2]; Table 5, NIST database): 3
- LogK, Mg [3]: 0
- Effect of Chelators upon extraction of Aβ (% change from control) ([4]; 0.1 mM chelator): 182%
- Effect of Chelators upon extraction of Aβ (% change from control) ([4]; 2.0 mM chelator): 241%
- mean increase of Aβ solubilization over PBS alone ([4]; 6 AD brains, 0.1 or 2.0 mM): around 2 fold
- Extractable Aβ ([4]; AD subject 1, chelator 2 mM): 0.21 µg/g
- Extractable Aβ (% of total) ([4]; AD subject 1, chelator 2 mM): (0.2) %
- Extractable Aβ ([4]; AD subject 2, chelator 2 mM): 3.40 µg/g
- Extractable Aβ (% of total) ([4]; AD subject 2, chelator 2 mM): (4.4) %
- Extractable Aβ ([4]; AD subject 3, chelator 2 mM): 1.80 µg/g
- Extractable Aβ (% of total) ([4]; AD subject 3, chelator 2 mM): (2.25) %
- Extractable Aβ ([4]; AD subject 4, chelator 2 mM): 5.50 µg/g
- Extractable Aβ (% of total) ([4]; AD subject 4, chelator 2 mM): (9.2) %
- Extractable Aβ ([4]; AD subject 5, chelator 2 mM): 5.00 µg/g
- Extractable Aβ (% of total) ([4]; AD subject 5, chelator 2 mM): (3.5) %
- Extractable Aβ ([4]; AD subject 6, chelator 2 mM): 0.28 µg/g
- Extractable Aβ (% of total) ([4]; AD subject 6, chelator 2 mM): (1.75) %
- Extractable Aβ (% of total), X (mean) ([4]; AD subjects 1-6, chelator 2 mM): (4.6) %
- Extractable Aβ, X (mean) ([4]; AD subjects 1-6, chelator 2 mM): 2.73 µg/g
- X C/PBS (mean chelator / PBS) ([4]; AD tissue, chelator 2 mM): 2.60
- efficiency in extracting Aβ ([4]; neutral saline buffer, TPEN 5 μM): highly efficient
- LogK, Co [5]: 0
- LogK, Al [6]: 0
- LogK, Zn ([7]; Table 1, K=[ML]/[M][L]): 15.4
- Stability constant logK10, Zn ([7]; Table 5, NIST database): 15.4
- Extractable Aβ ([8]; AC subject 1): 0.22 µg/g
- Extractable Aβ (% of total) ([8]; AC subject 1): (32.0) %
- Extractable Aβ ([8]; AC subject 2): 0.38 µg/g
- Extractable Aβ (% of total) ([8]; AC subject 2): (9.0) %
- Extractable Aβ ([8]; AC subject 3): 0.26 µg/g
- Extractable Aβ (% of total) ([8]; AC subject 3): (9.7) %
- Extractable Aβ ([8]; AC subject 4): 0.09 µg/g
- Extractable Aβ (% of total) ([8]; AC subject 4): (3.0) %
- Extractable Aβ ([8]; AC subject 5): 1.06 µg/g
- Extractable Aβ (% of total) ([8]; AC subject 5): (29.5) %
- Extractable Aβ (% of total), X (mean) ([8]; AC subjects 1-5): (16.7) %
- Extractable Aβ, X (mean) ([8]; AC subjects 1-5): 0.40 µg/g
- X C/PBS (mean chelator / PBS) ([8]; age-matched control tissue): 1.6
- LogK, Cu ([9]; Table 1, K=[ML]/[M][L]): 20.2
- Stability constant logK10, Cu ([9]; Table 5, NIST database): 20.2
- Residual Al in pellet [10, 11]: 65 mg/kg
- Residual Ca in pellet [10, 11]: (210) mg/kg
- Residual Cu in pellet [10, 11]: 9.8 mg/kg
- Residual Fe in pellet [10, 11]: 239 mg/kg
- Residual Mg in pellet [10, 11]: 230 mg/kg
- Residual Zn in pellet [10, 11]: 33.2* mg/kg
- Residual Al in extracted pellet ([10]; chelator 0.001 mM): 34 mg/kg
- Residual Ca in extracted pellet ([10]; chelator 0.001 mM): 490 mg/kg
- Residual Cu in extracted pellet ([10]; chelator 0.001 mM): 12 mg/kg
- Residual Fe in extracted pellet ([10]; chelator 0.001 mM): 512 mg/kg
- Residual Mg in extracted pellet ([10]; chelator 0.001 mM): 192 mg/kg
- Residual Zn in extracted pellet ([10]; chelator 0.001 mM): 42 mg/kg
- Residual Al in extracted pellet ([10]; chelator 0.004 mM): 22 mg/kg
- Residual Ca in extracted pellet ([10]; chelator 0.004 mM): 322 mg/kg
- Residual Cu in extracted pellet ([10]; chelator 0.004 mM): 10 mg/kg
- Residual Fe in extracted pellet ([10]; chelator 0.004 mM): 317 mg/kg
- Residual Mg in extracted pellet ([10]; chelator 0.004 mM): 147 mg/kg
- Residual Zn in extracted pellet ([10]; chelator 0.004 mM): 28 mg/kg
- Residual Al in extracted pellet ([10]; chelator 0.04 mM): 22 mg/kg
- Residual Ca in extracted pellet ([10]; chelator 0.04 mM): 956 mg/kg
- Residual Cu in extracted pellet ([10]; chelator 0.04 mM): 10 mg/kg
- Residual Fe in extracted pellet ([10]; chelator 0.04 mM): 322 mg/kg
- Residual Mg in extracted pellet ([10]; chelator 0.04 mM): 201 mg/kg
- Residual Zn in extracted pellet ([10]; chelator 0.04 mM): 22 mg/kg
- Residual Al in extracted pellet ([10]; chelator 0.1 mM): 60 mg/kg
- Residual Ca in extracted pellet ([10]; chelator 0.1 mM): 708 mg/kg
- Residual Cu in extracted pellet ([10]; chelator 0.1 mM): 12 mg/kg
- Residual Fe in extracted pellet ([10]; chelator 0.1 mM): 389 mg/kg
- Residual Mg in extracted pellet ([10]; chelator 0.1 mM): 200 mg/kg
- Residual Zn in extracted pellet ([10]; chelator 0.1 mM): 21 mg/kg
- Residual Al in extracted pellet ([10]; chelator 2.0 mM): 148 mg/kg
- Residual Ca in extracted pellet ([10]; chelator 2.0 mM): 419 mg/kg
- Residual Cu in extracted pellet ([10]; chelator 2.0 mM): 11 mg/kg
- Residual Fe in extracted pellet ([10]; chelator 2.0 mM): 376 mg/kg
- Residual Mg in extracted pellet ([10]; chelator 2.0 mM): 200 mg/kg
- Residual Zn in extracted pellet ([10]; chelator 2.0 mM): 19 mg/kg
- Residual Al in extracted pellet ([10]; chelator 5.0 mM): 16 mg/kg
- Residual Ca in extracted pellet ([10]; chelator 5.0 mM): 377 mg/kg
- Residual Cu in extracted pellet ([10]; chelator 5.0 mM): 10 mg/kg
- Residual Fe in extracted pellet ([10]; chelator 5.0 mM): 307 mg/kg
- Residual Mg in extracted pellet ([10]; chelator 5.0 mM): 205 mg/kg
- Residual Zn in extracted pellet ([10]; chelator 5.0 mM): 17 mg/kg
- Residual Metal Levels, Al [10, 12]: 65
- Residual Metal Levels, Ca [10, 12]: 210
- Residual Metal Levels, Cu [10, 12]: 9.8
- Residual Metal Levels, Fe [10, 12]: 239
- Residual Metal Levels, Mg [10, 12]: 230
- Residual Metal Levels, Zn [10, 12]: 33.2

Source: US20020082273A1, “Agents for use in the treatment of alzheimer's disease” (priority 1998, published 2002)
